Measurements as given in patent US12642798B2, “Aripiprazole prodrug composition” (ALKERMES PHARMA IRELAND LIMITED, priority 2014, dated 2026).

Test: Particle size analysis by laser light scattering (Horiba)
Type: physicochemical
Settings: solid particulate form prior to milling
Source text: The term “particle size” or “volume based particle size” or “volume based particle size distribution” as used herein is equivalent to and also referred to as the Dv50 or D50 and means that at least about 50% of the aripiprazole prodrug particles have a diameter of less than the size specified. The aforementioned terms are used interchangeably herein. For example a volume based particle size (Dv50) of less than 1000 nm, means that 50% of the particle population has a diameter of less than 1000 nm when measured by static or dynamic light scattering techniques known to those skilled in the art. […] Unless otherwise specified, all particle sizes are specified in terms of volume based measurements and are measured by laser light scattering/diffraction. Particle sizes are then determined based on Mie scattering theory. More specifically, unless otherwise specified, volume based particle size (Dv50) is determined using a Horiba LA-950 standard model laser particle size analyser. Deionized water or water with a small quantity (for example 0.1% w/w) of surface stabilizer (for example polysorbate 20) is used as the sizing medium unless otherwise specified. […]
The particle size of the present composition may be measured using techniques such as light scattering with either water or a dilute surface stabilizer solution as the diluent. […]

Row | Structure (SMILES) | particle size (Dv50) prior to milling
1 | CCCCCC(=O)OCN1C(=O)CCc2ccc(OCCCCN3CCN(c4cccc(Cl)c4Cl)CC3)cc21 [aripiprazole cavoxil, (7-(4-(4-(2,3-Dichlorophenyl)piperazin-1-yl)butoxy)-2-oxo-3,4-dihydroquinolin-1(2H)yl)methyl hexanoate] | greater than 8 microns
2 | CCCCCCCCCCCC(=O)OCN1C(=O)CCc2ccc(OCCCCN3CCN(c4cccc(Cl)c4Cl)CC3)cc21 [aripiprazole lauroxil, Dodecanoic acid, [7-[4-[4-(2,3-dichlorophenyl)-1-piperazinyl]butoxy]-3,4-dihydro-2-oxo-1(2H)-quinolinyl]methyl ester] | greater than 10 microns
